From publication PMC11117541, “The Truncated Peptide AtPEP1^(9–23) Has the Same Function as AtPEP1^(1–23) in Inhibiting Primary Root Growth and Triggering of ROS Burst” (Antioxidants, 2024)
Where a SMILES comes first, the peptide text is derived from it.

Assays:
[1] = test system: shoot (rosette) of Arabidopsis seedlings; assay: Shoot growth, diameter of rosettes (Figure S1); format: in vivo, Arabidopsis thaliana; details: for Mean diff, A2 - B2, diameter of rosettes: two-way ANOVA output, by table order A = mock, B = peptide, row 2 = Day 4
[2] = test system: root tip cells of Arabidopsis seedlings; assay: Root tip morphology, generation of root hairs; format: in vivo, Arabidopsis thaliana; details: peptide for 4 days, up to 500 nM, n = 20
Protocol: (§1) Five-day-old seedlings were transferred from 1/2 MS medium to 1/2 MS medium supplemented with or without elicitor for four days. The transferred seedlings were photographed every day for a total of four days. The primary root length was measured using ImageJ software (V 1.8.0). After four days of elicitor treatment, the root tips of seedlings were observed by microscope and the fluorescence from root tip cells of GFP tag seedlings were excited with a 488 nm laser. Emission was detected between 495 and 550 nm. The images were acquired with an OLYMPUS FV10-MCPUS confocal laser scanning microscope. Images were processed using LSM image examiner software (FV10-ASW3.1) and Adobe Photoshop CS4 version 11.0.2 (Adobe Systems, San Jose, CA, USA).

[3] = test system: DR5::GFP (auxin maxima in root tips); assay: DR5::GFP reporter for auxin maxima in root tips; format: in vivo, Arabidopsis thaliana; details: 500 nM peptide, four days, confocal microscopy, n = 20, one-way ANOVA
Source text: (§2) All plants used in this study are of the Arabidopsis thaliana accession Columbia-0 (Col-0) background, including the wild-type, mutant line pepr1-2pepr2-2 (pepr1/2, AT1G73080 and AT1G17750) and transgenic lines expressing WOX5::GFP (AT3G11260) and DR5::GFP [35]. DR5 was created by petforming site-directed mutations in a natural composite auxin response element (AuxRE) found in the soybean GH3 promoter. DR5 consisted of tandem direct repeats of 11 bp (CCTTTTGTCTC)
as §1

[4] = test system: WOX5::GFP (quiescent center); assay: WOX5::GFP reporter in quiescent centre of root tips; format: in vivo, Arabidopsis thaliana; details: 500 nM peptide, four days, confocal microscopy, n = 20
Source text: as §2, §1

[5] = test system: ROS burst in Arabidopsis leaves (Col-0); assay: ROS burst, luminol dependent assay in Col-0 leaves; format: cell-based, Arabidopsis thaliana; details: for concentration at which ROS burst is triggered: Col-0 leaf pieces, luminol L-012/HRP, luminescence recorded 30 min
Protocol: The measurement of ROS burst was carried out using a luminol dependent assay. Briefly, leaf samples were cut into small pieces and placed in a 96-well plate containing 0.1 mL reaction solution (2 µg/mL horseradish peroxidase, 200 µM luminol L-012). Luminescence signal was immediately measured upon the addition elicitor peptides and recorded for a period of 30 min. The total relative light units (RLUs) measured within a 15 min time was plotted.

[6] = test system: primary root growth of Arabidopsis thaliana Col-0 seedlings; format: in vivo; details: n = 20; for concentration at which primary root growth is inhibited: five-day-old Col-0 seedlings transferred to 1/2 MS with peptide, up to 4 days; for inhibitory effect on primary root growth (in words): different concentrations up to 500 nM, 4 days
Protocol: For sterile seedlings, the seeds were first surface-sterilized with 75% ethanol twice. Then, after cold treatment at 4 °C for 2 days, the seeds were germinated on 1/2 Murashige-Skoog (MS) medium supplemented with 0.8% agar and 1% sucrose. For four-week-old plants, the seeds after cold treatment at 4 °C for 2 days were grown in a 1:1 mixture of sand: humus. Both growth environments were carried out in a growth cabinet with 12 h of light, a temperature of 22 °C, and 60% humidity.
as §1

CC(C)[C@H](NC(=O)[C@H](CCCCN)NC(=O)[C@H](CCC(=O)O)NC(=O)[C@H](CCCCN)NC(=O)CNC(=O)[C@H](CCCNC(=N)N)NC(=O)[C@H](CCC(N)=O)NC(=O)[C@@H](N)CCCCN)C(=O)N[C@@H](CO)C(=O)N[C@@H](CO)C(=O)NCC(=O)N[C@@H](CCCNC(=N)N)C(=O)N1CCC[C@H]1C(=O)NCC(=O)N[C@@H](CCC(N)=O)C(=O)N[C@@H](Cc1c[nH]cn1)C(=O)N[C@@H](CC(N)=O)C(=O)O [AtPEP1^(7–23)] (H-KQRGKEKVSSGRPGQHN-OH; N-terminus and C-terminus assumed)
Mean diff, A2 - B2, diameter of rosettes [1]: 0.1995 | generation of root hairs / maturation of root tip cells (in words) [2]: more efficient than AtPEP1^(1–23) | maximum levels of auxin in root tips (DR5::GFP fluorescence) compared with control [3]: significantly reduced | WOX5 expression (WOX5::GFP signaling width) compared with control [4]: increase in WOX5 expression | concentration at which ROS burst is triggered ([5]; n = 4): 10 nM

AtPEP1^(1–23): plant elicitor peptide 1 (PEP1) from Arabidopsis thaliana, composed of 23 amino acids, immune elicitor (ATKVKAKQRGKEKVSSGRPGQHN; Elicitor peptide 1; UniProt Q9LV87 70-92, looked up) [reference compound]
concentration at which primary root growth is inhibited [6]: 50 nM | concentration that completely inhibited the primary root growth ([6]; five-day-old Col-0 seedlings, 4 days on peptide medium): 500 nM | Mean diff, A2 - B2, diameter of rosettes [1]: 0.05081 | generation of root hairs / maturation of root tip cells (in words) [2]: promoted the generation of root hairs | maximum levels of auxin in root tips (DR5::GFP fluorescence) compared with control [3]: significantly reduced | WOX5 expression (WOX5::GFP signaling width) compared with control [4]: increase in WOX5 expression | total ROS within 15 min compared to the control group ([5]; 10 nM peptide): no significant difference | concentration at which ROS burst is triggered ([5]; n = 4): 10 nM | concentration at which total ROS within 15 min was significantly higher than the control ([5]; total RLU within 15 min, one-way ANOVA, n = 4): greater than or equal to 100 nM

AtPEP1^(5–23): truncated peptide of AtPEP1(1–23), residues 5–23 (KAKQRGKEKVSSGRPGQHN; Elicitor peptide 1; UniProt Q9LV87 74-92, looked up, fragment)
Mean diff, A2 - B2, diameter of rosettes [1]: 0.1141 | generation of root hairs / maturation of root tip cells (in words) [2]: more efficient than AtPEP1^(1–23) | maximum levels of auxin in root tips (DR5::GFP fluorescence) compared with control [3]: significantly reduced | WOX5 expression (WOX5::GFP signaling width) compared with control [4]: increase in WOX5 expression | concentration at which ROS burst is triggered ([5]; n = 4): 10 nM

AtPEP1^(9–22): C-terminal truncated peptide created from AtPEP1(9–23) (RGKEKVSSGRPGQH; Elicitor peptide 1; UniProt Q9LV87 78-91, looked up, fragment)
Mean diff, A2 - B2, diameter of rosettes [1]: -0.02327 | generation of root hairs / maturation of root tip cells (in words) [2]: did not promote the generation of root hairs | maximum levels of auxin in root tips (DR5::GFP fluorescence) compared with control [3]: did not show significant changes | concentration at which ROS burst is triggered ([5]; n = 4): 100 nM

AtPEP1^(9–23): truncating eight amino acids from the N-terminus of AtPEP1(1–23) (RGKEKVSSGRPGQHN; Elicitor peptide 1; UniProt Q9LV87 78-92, looked up, fragment)
Mean diff, A2 - B2, diameter of rosettes [1]: 0.1045 | generation of root hairs / maturation of root tip cells (in words) [2]: more efficient than AtPEP1^(1–23) | maximum levels of auxin in root tips (DR5::GFP fluorescence) compared with control [3]: significantly reduced | WOX5 expression (WOX5::GFP signaling width) compared with control [4]: increase in WOX5 expression | concentration at which ROS burst is triggered ([5]; n = 4): 10 nM

AtPEP1^(11–23): truncated peptide of AtPEP1(1–23), residues 11–23 (KEKVSSGRPGQHN; Elicitor peptide 1; UniProt Q9LV87 80-92, looked up, fragment)
inhibitory effect on primary root growth (in words) [6]: lower than that of AtPEP1^(1–23) | concentration at which primary root growth is inhibited [6]: 5 nM | Mean diff, A2 - B2, diameter of rosettes [1]: 0.1293 | generation of root hairs / maturation of root tip cells (in words) [2]: did not promote the generation of root hairs | maximum levels of auxin in root tips (DR5::GFP fluorescence) compared with control [3]: significantly reduced | WOX5 expression (WOX5::GFP signaling width) compared with control [4]: increase in WOX5 expression | concentration at which ROS burst is triggered ([5]; n = 4): 10 nM

AtPEP1^(13–23): truncating 12 amino acids from the N-terminus of AtPEP1(1–23) (KVSSGRPGQHN; Elicitor peptide 1; UniProt Q9LV87 82-92, looked up, fragment)
inhibitory effect on primary root growth (in words) [6]: did not show an obvious inhibitory effect | inhibitory effect on the shoot (in words) ([1]; Figure S1, Table S7): does not inhibit | Mean diff, A2 - B2, diameter of rosettes [1]: 0.03538 | generation of root hairs / maturation of root tip cells (in words) [2]: did not promote the generation of root hairs | maximum levels of auxin in root tips (DR5::GFP fluorescence) compared with control [3]: did not show significant changes | concentration at which ROS burst is triggered ([5]; n = 4): 10 nM
